Laboratory results as given in ChEMBL document CHEMBL1145716, “Fagomine isomers and glycosides from Xanthocercis zambesiaca” (J Nat Prod, 1997).

Legend:
[1] = biological target: Sucrase-isomaltase, intestinal (Rattus norvegicus) (UniProt P23739); assay: Inhibition of Wistar rat intestinal isomaltase at 1000 uM by glucose B-test
[2] = species on record: Rattus norvegicus; assay: Inhibition of rat liver lysosomal alpha-galactosidase at 1000 uM by spectrophotometry
[3] = system: Oryza sativa; assay: Inhibition of rice alpha-glucosidase at 1000 uM by glucose B-test
[4] = species on record: Rattus norvegicus; assay: Inhibition of Wistar rat intestinal cellobiase at 1000 uM by glucose B-test
[5] = system: Prunus dulcis; assay: Inhibition of almond beta-glucosidase at 1000 uM by spectrophotometry
[6] = species on record: Rattus norvegicus; assay: Inhibition of rat liver lysosomal beta-glucosidase at 1000 uM by spectrophotometry
[7] = species on record: Bos taurus; assay: Inhibition of bovine liver beta-galactosidase at 1000 uM by spectrophotometry
[8] = system: Coffea arabica; assay: Inhibition of green coffee bean alpha-galactosidase at 1000 uM by spectrophotometry
[9] = species on record: Rattus norvegicus; assay: Inhibition of rat liver beta-galactosidase at 1000 uM by spectrophotometry
[10] = Inhibition of rat liver beta-galactosidase by spectrophotometry
[11] = biological target: Sucrase-isomaltase, intestinal (Rattus norvegicus, UniProt P23739); assay: Inhibition of Wistar rat intestinal isomaltase by glucose B-test
[12] = Inhibition of rice alpha-glucosidase by glucose B-test; design: species or system Oryza sativa
[13] = Inhibition of green coffee bean alpha-galactosidase by spectrophotometry; design: species or system Coffea arabica
[14] = Inhibition of Wistar rat intestinal cellobiase by glucose B-test
[15] = Inhibition of rat liver lysosomal beta-glucosidase by spectrophotometry
[16] = Inhibition of almond beta-glucosidase by spectrophotometry; design: species or system Prunus dulcis
[17] = Inhibition of bovine liver beta-galactosidase by spectrophotometry; design: species or system Bos taurus

Sucrase-isomaltase, intestinal (Rattus norvegicus), sequence (P23739 1-1013 limits assumed): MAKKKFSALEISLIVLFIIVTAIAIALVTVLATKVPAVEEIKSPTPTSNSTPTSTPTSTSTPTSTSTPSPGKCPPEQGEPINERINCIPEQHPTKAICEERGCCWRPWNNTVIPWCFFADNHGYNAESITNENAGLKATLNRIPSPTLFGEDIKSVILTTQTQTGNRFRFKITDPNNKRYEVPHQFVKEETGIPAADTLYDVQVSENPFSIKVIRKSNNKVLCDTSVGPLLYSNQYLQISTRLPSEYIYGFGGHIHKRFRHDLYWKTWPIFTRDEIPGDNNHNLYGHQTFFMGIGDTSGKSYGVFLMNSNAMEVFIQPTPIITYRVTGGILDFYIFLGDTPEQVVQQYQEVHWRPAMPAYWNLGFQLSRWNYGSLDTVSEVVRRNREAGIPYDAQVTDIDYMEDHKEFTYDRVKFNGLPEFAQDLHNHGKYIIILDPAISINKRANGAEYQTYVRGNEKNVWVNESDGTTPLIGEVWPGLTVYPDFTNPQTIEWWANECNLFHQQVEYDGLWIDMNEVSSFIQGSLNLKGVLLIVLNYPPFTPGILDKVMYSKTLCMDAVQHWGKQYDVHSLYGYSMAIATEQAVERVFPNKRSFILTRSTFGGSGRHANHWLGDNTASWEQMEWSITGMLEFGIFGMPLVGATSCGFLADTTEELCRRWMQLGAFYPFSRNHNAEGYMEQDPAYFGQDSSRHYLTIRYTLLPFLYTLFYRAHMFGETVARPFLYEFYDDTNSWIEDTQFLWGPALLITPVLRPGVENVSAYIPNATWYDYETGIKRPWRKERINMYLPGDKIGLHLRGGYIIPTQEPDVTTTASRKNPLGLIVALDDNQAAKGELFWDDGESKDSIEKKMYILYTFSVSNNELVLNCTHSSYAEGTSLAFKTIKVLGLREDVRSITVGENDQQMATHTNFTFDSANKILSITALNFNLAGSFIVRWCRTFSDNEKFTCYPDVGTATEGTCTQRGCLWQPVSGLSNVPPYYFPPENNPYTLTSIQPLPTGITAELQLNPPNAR
Sucrase-isomaltase, intestinal (Rattus norvegicus), sequence (P23739 1014-1841 limits assumed): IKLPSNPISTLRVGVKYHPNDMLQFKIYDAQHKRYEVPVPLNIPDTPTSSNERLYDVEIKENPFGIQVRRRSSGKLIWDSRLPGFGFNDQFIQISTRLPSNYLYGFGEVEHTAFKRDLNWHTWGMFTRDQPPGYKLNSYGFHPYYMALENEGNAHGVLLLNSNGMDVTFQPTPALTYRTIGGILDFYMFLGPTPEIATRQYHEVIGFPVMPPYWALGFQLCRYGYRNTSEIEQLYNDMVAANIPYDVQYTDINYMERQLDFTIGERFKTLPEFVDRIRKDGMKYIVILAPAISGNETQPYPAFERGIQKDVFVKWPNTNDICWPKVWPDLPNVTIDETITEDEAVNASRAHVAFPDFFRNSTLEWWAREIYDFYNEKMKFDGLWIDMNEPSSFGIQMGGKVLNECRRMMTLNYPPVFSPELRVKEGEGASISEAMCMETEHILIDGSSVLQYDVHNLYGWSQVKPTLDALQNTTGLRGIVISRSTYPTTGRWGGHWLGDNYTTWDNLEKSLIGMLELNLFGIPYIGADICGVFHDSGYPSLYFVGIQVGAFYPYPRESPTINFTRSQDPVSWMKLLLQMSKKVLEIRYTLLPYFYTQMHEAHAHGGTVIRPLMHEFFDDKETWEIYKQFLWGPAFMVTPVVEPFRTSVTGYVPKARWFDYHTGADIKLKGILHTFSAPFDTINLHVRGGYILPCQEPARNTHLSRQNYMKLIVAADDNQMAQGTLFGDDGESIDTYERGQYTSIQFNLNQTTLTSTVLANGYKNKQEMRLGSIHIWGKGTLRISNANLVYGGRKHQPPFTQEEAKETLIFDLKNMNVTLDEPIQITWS
Sucrase-isomaltase, intestinal, sequence (P23739 1-1013 limits assumed): as the sequence (P23739 1-1013 limits assumed) above
Sucrase-isomaltase, intestinal, sequence (P23739 1014-1841 limits assumed): as the sequence (P23739 1014-1841 limits assumed) above

SMILES	inhibition [1]	inhibition [2]	inhibition [3]	inhibition [4]	inhibition [5]	inhibition [6]	inhibition [7]	inhibition [8]	inhibition [9]	IC50 [10]	IC50 [11]	IC50 [12]	IC50 [13]	IC50 [14]	IC50 [15]	IC50 [16]	IC50 [17]
OC[C@H]1NCC[C@@H](O[C@@H]2O[C@H](CO)[C@@H](O)[C@H](O)[C@H]2O)[C@@H]1O	< 50%	< 50%	< 50%	< 50%	< 50%	< 50%	< 50%	< 50%	< 50%								
OC[C@H]1NCC[C@@H](O)[C@@H]1O[C@@H]1O[C@H](CO)[C@@H](O)[C@H](O)[C@H]1O	< 50%	< 50%	< 50%	< 50%	< 50%	< 50%	< 50%	< 50%	< 50%								
OC[C@H]1NCC[C@@H](O)[C@@H]1O [FAGOMINE]		< 50%		< 50%	< 50%	< 50%				15 µM	46 µM	320 µM	56 µM				
OC[C@H]1NCC[C@H](O)[C@H]1O	< 50%	< 50%	< 50%	< 50%	< 50%	< 50%	< 50%	< 50%	< 50%								
OC[C@H]1NCC[C@H](O)[C@@H]1O		< 50%						< 50%		4 µM	6 µM	120 µM		100 µM	740 µM	120 µM	3000 nM
